What is called IC50 is the concentration at which inhibition is half-maximal. As usually defined, the viability is a read-out of living cells in per cent, often relative to untreated cells.

For one series, the system named is male ICR mice. Put plainly: Locomotor activity and spontaneous alternation in Y-maze. Conditions: donepezil 3 mg/kg p.o., average of 7 mice. Format: in vivo. How it is done: Scopolamine was dissolved in NSS. Donepezil and crude extract were dissolved in corn oil. Animal doses were calculated according to mice body weight. […].
Sixty male ICR mice in age 6 weeks (34-44 g) were supplied from Northeast Laboratory Animal Center, KKU. Before conducting the experiments, they were acclimatized for a week with a 12h light-dark cycle and had free access to their diet and water. Their body weight was recorded every day. […] Investigators could not be blinded to the mouse groups due to the difference in code colors. However, the investigators who assessed the mouse’s behavior were blinded to the mouse code for providing unbiased data. The parameters related to behavioral changes were assessed including the number of arm entries, the exploration time spent, and the time spent in a preference quadrant.
Locomotor activity was investigated in a black polyvinyl chamber Y maze. The size of the chamber is 40 cm long, 3 cm wide at the bottom and 10 cm wide at the top, and 12 cm high in each arm. Mice were first allowed to acclimate the chamber and freely moved in Y maze for 8 minutes. After acclimatization, the locomotor activity was measured for 1 hour following the treatment administration. The number of arm entries was recorded from the middle of the maze.

Series [1] has as its system scopolamine-induced amnesic mice. Put plainly: Modified Y-maze test, scopolamine-induced amnesia. Format: in vivo.
The test system is the same in series [2]. Put plainly: Novel object recognition test, scopolamine-induced amnesia. Format: in vivo.
For series [3] the test system is unchanged. Put plainly: Morris water maze test, scopolamine-induced amnesia. The format is in vivo.
A further series has as its target AChE (Homo sapiens, UniProt P22303). Put plainly: biochemical.
The target of a further series is BChE (Homo sapiens, UniProt P06276). Put plainly: biochemical. The following applies: mean ± SD, n = 3; read-out: BChE inhibition IC50.
For the next series, the target named is T1, Aβ1-42 (Homo sapiens, UniProt P05067).
T1 construct: Aβ1-42 was firstly dissolved in HFIP
Briefly: Inhibition of Aβ1-42 aggregation (fibril formation), ThT fluorescence. Format: biochemical. The source says:
(§1) Then, the solvent was dried in hood using nitrogen, and reconstituted to working solution with 0.5 M phosphate buffer (pH 7.4).

For the next series, the target named is T2, Aβ1-42 fibrils (Homo sapiens, UniProt P05067).
T2 construct: Aβ1-42 was firstly dissolved in HFIP
Put plainly: biochemical. Conditions: read-out: Aβ destabilization IC50.
Source text: as §1

The nature of the next series: DPPH radical scavenging. Conditions: read-out: Antioxidant DPPH IC50. How it is done: (§2) The mixtures were kept in the dark for 30 minutes and then the absorbance was measured at 550 nm. In case of ABTS assay, ABTS radical cation (ABTS • + ) was prepared from a mixture of the ABTS stock solution (7 mM) and potassium persulfate (2.45 mM) in water. The mixture was then kept in the dark for 12-16 hours before use. Then, the ABTS • + solution was diluted in ethanol until the absorbance reached 0.70 ± 0.02 at […].
(§3) Trolox was used as a positive control in both assays, while a mixture of ethanol and DPPH or ABTS • + solution served as the negative control. The percentage inhibition of DPPH and ABTS radicals was calculated using the following equation:
(§4) DPPHandABTSinhibition%=A0−A1/A0×100
(§5) A0 is the absorbance of the control and A1 is the absorbance of the sample.
In general terms: Loss of DPPH colour is used to gauge radical scavenging.

Another series can be described thus: ABTS radical scavenging. Conditions: read-out: Antioxidant ABTS IC50. On the procedure: as §2, §3, §4, §5
The nature of series [4]: Cytotoxicity in differentiated SH-SY5Y cells, MTT. Format: cell-based. The following applies: human. How it is done:
(§6) Neuroblastoma cells (SH-SY5Y) were maintained in humidified atmosphere at 37 °C with 5%CO2 in DMEM/F12 supplement with 10%FBS. Afterward, cells were treated for 6 days and replaced every 3 days with 1%FBS supplementation and 10 μM of retinoic acid. Cells were seeded (100,000 cells per well) in 96-well microplates and cultured for 48 hours before treatment. […] Cell viability was assessed using MTT assay. Absorbance at 570 nm was measured for both treated and untreated samples, with viability expressed as a percentage relative to the control.

The test system of the next series is SH-SY5Y cells. Put plainly: Cytotoxicity in differentiated SH-SY5Y cells, MTT. The format is cell-based. Conditions: 100 µM, SH-SY5Y, MTT, average of 5. On the procedure: as §6
[5] abbreviates: long-term memory (24 h delay), donepezil 3 mg/kg p.o. + scopolamine 1 mg/kg i.p.
Where [6] appears, read: short-term memory, donepezil 3 mg/kg p.o. + scopolamine 1 mg/kg i.p.
[7] abbreviates: 0.1 µM, SH-SY5Y, MTT, average of 5, read-out: %Cell viability (cytotoxicity).
[8] abbreviates: 1 µM, SH-SY5Y, MTT, average of 5, read-out: %Cell viability (cytotoxicity).
Setting [9] is: 10 µM, SH-SY5Y, MTT, average of 5, read-out: %Cell viability (cytotoxicity).
[10] abbreviates: 100 µM, SH-SY5Y, MTT, average of 5, read-out: %Cell viability (cytotoxicity).
[11] abbreviates: read-out: Inhibition of Aβ formation IC50.
Where [12] appears, read: long-term memory (24 h delay), scopolamine 1 mg/kg i.p. alone.
The mark [13] stands for this setting: short-term memory, scopolamine 1 mg/kg i.p. alone.
Where [14] appears, read: mean ± SD, n = 3, read-out: AChE inhibition IC50.
[15] abbreviates: differentiated SH-SY5Y neuroblastoma cells, 0.1 µM, SH-SY5Y, MTT, average of 5, read-out: %Cell viability (cytotoxicity).
Where [16] appears, read: differentiated SH-SY5Y neuroblastoma cells, 1 µM, SH-SY5Y, MTT, average of 5, read-out: %Cell viability (cytotoxicity).
The mark [17] stands for this setting: differentiated SH-SY5Y neuroblastoma cells, 10 µM, SH-SY5Y, MTT, average of 5, read-out: %Cell viability (cytotoxicity).
[18] abbreviates: differentiated SH-SY5Y neuroblastoma cells, 100 µM, SH-SY5Y, MTT, average of 5, read-out: %Cell viability (cytotoxicity).

Molecules are shown by their SMILES. Like-named read-outs stand apart in the source and are kept apart here.

T2 sequence (P05067 672-713 limits assumed): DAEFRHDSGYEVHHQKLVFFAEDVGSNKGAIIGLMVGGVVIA
T1 sequence (P05067 672-713 limits assumed): as above
Sequence of BChE (P06276 29-602, species assumed): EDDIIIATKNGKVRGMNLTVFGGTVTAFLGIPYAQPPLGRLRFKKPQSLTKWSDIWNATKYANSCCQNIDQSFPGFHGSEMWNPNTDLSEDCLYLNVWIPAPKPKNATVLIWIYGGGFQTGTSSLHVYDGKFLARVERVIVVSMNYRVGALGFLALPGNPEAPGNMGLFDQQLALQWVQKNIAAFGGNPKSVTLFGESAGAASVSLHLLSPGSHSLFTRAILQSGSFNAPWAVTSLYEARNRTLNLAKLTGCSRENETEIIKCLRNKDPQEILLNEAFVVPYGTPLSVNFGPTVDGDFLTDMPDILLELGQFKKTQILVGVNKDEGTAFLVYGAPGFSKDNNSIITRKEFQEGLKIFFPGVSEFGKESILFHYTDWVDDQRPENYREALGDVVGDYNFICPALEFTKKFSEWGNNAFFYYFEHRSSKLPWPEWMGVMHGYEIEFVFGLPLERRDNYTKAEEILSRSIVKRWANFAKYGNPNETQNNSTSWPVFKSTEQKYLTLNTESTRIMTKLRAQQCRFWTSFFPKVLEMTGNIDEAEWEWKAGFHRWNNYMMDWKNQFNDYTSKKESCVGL
Sequence of AChE (P22303 32-614): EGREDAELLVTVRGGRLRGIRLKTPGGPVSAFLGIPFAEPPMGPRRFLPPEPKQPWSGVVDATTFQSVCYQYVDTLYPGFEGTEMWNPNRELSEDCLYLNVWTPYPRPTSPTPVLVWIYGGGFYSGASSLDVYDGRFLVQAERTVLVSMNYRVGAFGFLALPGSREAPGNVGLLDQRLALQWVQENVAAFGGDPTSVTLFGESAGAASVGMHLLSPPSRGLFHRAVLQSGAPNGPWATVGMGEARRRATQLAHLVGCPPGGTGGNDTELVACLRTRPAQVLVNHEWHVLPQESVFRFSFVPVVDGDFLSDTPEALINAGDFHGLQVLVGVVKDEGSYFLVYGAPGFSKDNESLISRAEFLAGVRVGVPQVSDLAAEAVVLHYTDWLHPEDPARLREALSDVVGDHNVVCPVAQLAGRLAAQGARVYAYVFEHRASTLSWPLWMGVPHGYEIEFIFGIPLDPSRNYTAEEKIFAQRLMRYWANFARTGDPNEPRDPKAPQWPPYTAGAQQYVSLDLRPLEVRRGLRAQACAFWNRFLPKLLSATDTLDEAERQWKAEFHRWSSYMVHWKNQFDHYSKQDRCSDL

On to `COc1cc2c(cc1OC)C(=O)C(CC1CCN(Cc3ccccc3)CC1)C2` (stereo not drawn) [Donepezil], for which, in the series on male ICR mice, the “Locomotor activity, total number of arm entries” value was 23.57. Moreover, the “%unfamiliar arm exploration” value in series [1] (long-term memory (24 hours), donepezil 3 mg/kg p.o. + scopolamine 1 mg/kg i.p.) is 39.94%; in series [1] (short-term memory (30 min), donepezil 3 mg/kg p.o. + scopolamine 1 mg/kg i.p.), 40.79%. Also, the “Time spent exploring the familiar object” value in [2] (setting [5]) worked out at 32.11 s; in series [2] (setting [6]) it was 52.86 s. The figures for the “Time spent exploring the novel object” value in [2] (setting [5]) and in series [2] (setting [6]) were 56.84 s and 64.31 s, respectively. Also, the “Time to find the platform, Escape latency” value amounted to 59.86 s in [3] (acquisition phase Day 1, donepezil 3 mg/kg p.o. + scopolamine 1 mg/kg i.p.); 49.00 s in series [3] (acquisition phase Day 2, donepezil 3 mg/kg p.o. + scopolamine 1 mg/kg i.p.); 37.04 s in [3] (acquisition phase Day 3, donepezil 3 mg/kg p.o. + scopolamine 1 mg/kg i.p.); 27.71 s in series [3] (acquisition phase Day 4, donepezil 3 mg/kg p.o. + scopolamine 1 mg/kg i.p.); 25.57 s in series [3] (acquisition phase Day 5, donepezil 3 mg/kg p.o. + scopolamine 1 mg/kg i.p.). For the same compound, the “Time spent in the target quadrant” value in [3] (probe test day 6, donepezil 3 mg/kg p.o. + scopolamine 1 mg/kg i.p.) is 18.39 s.
With `COc1ccc(-c2oc3cc(OC)cc(OC)c3c(=O)c2OC)cc1` [F5, 3,5,7,4′-tetramethoxyflavone], the IC50 was 209.1 ± 0.82 µM against AChE; 164 ± 5.13 µM at BChE; 134 ± 5.08 µM at Aβ1-42; 51.3 ± 3.13 µM on Aβ1-42 fibrils; greater than 100 µM in the series “DPPH radical scavenging”; greater than 100 µM in the series “ABTS radical scavenging”. The viability at 0.1 µM in series [4] (setting [7]) turned out to be 99.9%. Moreover, the viability at 1 µM in [4] (setting [8]) was determined as 99.8%. For the same compound, the viability at 10 µM in [4] (setting [9]) was found to be 98.8%. Further, the viability at 100 µM in [4] (setting [10]) was 102%.
Regarding `Cc1c(C)c2c(c(C)c1O)CCC(C)(C(=O)O)O2` (stereo not drawn) [Trolox, reference compound], the IC50 is 24.6 ± 0.39 µM in the series “DPPH radical scavenging” and 81.4 ± 4.67 µM in the series “ABTS radical scavenging”.
With `COc1cc(OC)c2c(=O)cc(-c3ccccc3)oc2c1` [F1, 5,7-dimethoxyflavone], the IC50 was 181 ± 2.66 µM against AChE; 92.19 ± 0.69 µM on BChE; 105 ± 1.34 µM on Aβ1-42 (setting [11]); 75.9 ± 4.96 µM on Aβ1-42 fibrils; greater than 100 µM in “DPPH radical scavenging”; greater than 100 µM in the series “ABTS radical scavenging”. The viability at 0.1 µM in series [4] worked out at 104%. Further, the viability at 1 µM in series [4] came out at 104%. The viability at 10 µM in [4] was found to be 103%. In [4], the viability at 100 µM was 103%.
With `COc1ccc(-c2cc(=O)c3c(OC)cc(OC)cc3o2)cc1` [F3, 5,7,4′-trimethoxyflavone], the IC50 on AChE is 106 ± 1.14 µM; on BChE, 152 ± 6.14 µM; at Aβ1-42 (setting [11]), 91.4 ± 4.67 µM; at Aβ1-42 fibrils, 39.5 ± 0.61 µM; in “DPPH radical scavenging” it was greater than 100 µM; in the series “ABTS radical scavenging” it was greater than 100 µM. The viability at 0.1 µM in [4] (setting [7]) turned out to be 101%. Besides, the viability at 1 µM in series [4] (setting [8]) turned out to be 102%. In addition, the viability at 10 µM in [4] (setting [9]) was found to be 102%. For the same compound, the viability at 100 µM in series [4] (setting [10]) is 95.5%.
On to `CN1[C@@H]2C[C@@H](OC(=O)[C@H](CO)c3ccccc3)C[C@H]1[C@@H]1O[C@@H]12` [Scopolamine], for which the “%unfamiliar arm exploration” value in series [1] (long-term memory (24 hours), scopolamine 1 mg/kg i.p. alone) stood at 33.37%; in series [1] (short-term memory (30 min), scopolamine 1 mg/kg i.p. alone) it was 31.09%. The “Time spent exploring the familiar object” value came to 43.83 s in series [2] (setting [12]) and 63.40 s in [2] (setting [13]). Besides, the entries for the “Time spent exploring the novel object” value in series [2] (setting [12]) and in series [2] (setting [13]) were 27.21 s and 46.80 s, respectively. The “Time to find the platform, Escape latency” value in series [3] (acquisition phase Day 1, scopolamine 1 mg/kg i.p. alone) was 58.43 s; in series [3] (acquisition phase Day 2, scopolamine 1 mg/kg i.p. alone), 54.46 s; in [3] (acquisition phase Day 3, scopolamine 1 mg/kg i.p. alone), 46.21 s; in series [3] (acquisition phase Day 4, scopolamine 1 mg/kg i.p. alone), 39.64 s; in [3] (acquisition phase Day 5, scopolamine 1 mg/kg i.p. alone) it was 35.04 s.
`COc1cc(OC)c2c(=O)c(OC)c(-c3ccccc3)oc2c1` [F2, 3,5,7-trimethoxyflavone]: the IC50 was 237.1 ± 2.28 µM at AChE (setting [14]); 233 ± 6.89 µM at BChE; 87.1 ± 4.51 µM at Aβ1-42 (setting [11]); 83.9 ± 1.67 µM on Aβ1-42 fibrils; greater than 100 µM in the series “DPPH radical scavenging”; greater than 100 µM in the series “ABTS radical scavenging”. Moreover, in series [4] (setting [15]), the viability at 0.1 µM came out at 103%. In addition, in series [4] (setting [16]), the viability at 1 µM is 102%. For the same compound, the viability at 10 µM in series [4] (setting [17]) is 102%. Moreover, the viability at 100 µM in series [4] (setting [18]) stood at 94%. The “%Cell viability (cytotoxicity)” value with SH-SY5Y cells is “toxic”.
As for `COc1cc(O)c2c(=O)c(OC)c(-c3ccccc3)oc2c1` [F4, 5-hydroxy-3,7-dimethoxyflavone], the IC50 on AChE (setting [14]) is 217.6 ± 1.84 µM; on BChE, 33.5 ± 2.97 µM; on Aβ1-42 (setting [11]), 97.1 ± 2.38 µM; on Aβ1-42 fibrils it was 63.9 ± 1.83 µM; in the series “DPPH radical scavenging”, greater than 100 µM; in the series “ABTS radical scavenging”, greater than 100 µM. In [4] (setting [15]), the viability at 0.1 µM was determined as 102%. Further, the viability at 1 µM in series [4] (setting [16]) amounted to 103%. Also, the viability at 10 µM in series [4] (setting [17]) is 103%. For the same compound, the viability at 100 µM in [4] (setting [18]) worked out at 80.5%. Also, the “%Cell viability (cytotoxicity)” value in the series on SH-SY5Y cells is given as “toxic”.

These data come from paper PMC11892870 (PLOS One, 2025).
